Drawing on patent US7473699B2, “3-cyclyl-5-(nitrogen-containing 5-membered ring)methyl-oxazolidinone derivatives and their use as antibacterial agents” (AstraZeneca AB, priority 2002, dated 2009), this text covers MIC and Ki for three compounds.

Values after ≈ are worked out from the molar mass of the structure shown. Read-outs that look alike come from different tables or passages of the source.

Assay [1] has as its system Staphylococcus aureus MSQS. Kind of assay: MIC, agar-dilution, Staphylococcus aureus MSQS. It is filed as cell-based. As to conditions: Staphylococcus aureus MSQS (methicillin sensitive and quinolone sensitive). The procedure:
(§1) The following results were obtained on a standard in-vitro test system. The activity is described in terms of the minimum inhibitory concentration (MIC) determined by the agar-dilution technique with an inoculum size of 10^4 CFU/spot. Typically, compounds are active in the range 0.01 to 256 μg/ml.
(§2) Staphylococci were tested on agar, using an inoculum of 10^4 CFU/spot and an incubation temperature of 37° C. for 24 hours—standard test conditions for the expression of methicillin resistance.

Assay [2] relates to Staphylococcus aureus MRQR. Briefly: MIC, agar-dilution, Staphylococcus aureus MRQR. As to conditions: Staphylococcus aureus MRQR (methicillin resistant and quinolone resistant). The format is cell-based. The procedure: as §1, §2
The next assay relates to Streptococcus pneumoniae. Briefly: MIC, agar-dilution, Streptococcus pneumoniae. The format is cell-based. The procedure: as §1
(§3) Streptococci and enterococci were tested on agar supplemented with 5% defibrinated horse blood, an inoculum of 10^4 CFU/spot and an incubation temperature of 37° C. in an atmosphere of 5% carbon dioxide for 48 hours—blood is required for the growth of some of the test organisms. Fastidious Gram negative organisms were tested in Mueller-Hinton broth, supplemented with hemin and NAD, grown aerobically for 24 hours at 37° C., and with an innoculum of 5×10^4 CFU/well.

In another assay the test system is Streptococcus pyogenes. Briefly: MIC, agar-dilution, Streptococcus pyogenes. The format is cell-based. The procedure: as §1, §3
The subject of a further assay is Haemophilus influenzae. Kind of assay: MIC, fastidious Gram negative organisms in Mueller-Hinton broth, Haemophilus influenzae. The format is cell-based. The procedure:
as §1, §3

The next assay concerns Moraxella catarrhalis. Kind of assay: MIC, fastidious Gram negative organisms in Mueller-Hinton broth, Moraxella catarrhalis. It is filed as cell-based. The procedure:
as §1, §3

A further assay deals with T1, MAO-A (Homo sapiens, UniProt P21397).
T1 construct: made in house; host or cells: yeast
T1 sequence (P21397 1-527): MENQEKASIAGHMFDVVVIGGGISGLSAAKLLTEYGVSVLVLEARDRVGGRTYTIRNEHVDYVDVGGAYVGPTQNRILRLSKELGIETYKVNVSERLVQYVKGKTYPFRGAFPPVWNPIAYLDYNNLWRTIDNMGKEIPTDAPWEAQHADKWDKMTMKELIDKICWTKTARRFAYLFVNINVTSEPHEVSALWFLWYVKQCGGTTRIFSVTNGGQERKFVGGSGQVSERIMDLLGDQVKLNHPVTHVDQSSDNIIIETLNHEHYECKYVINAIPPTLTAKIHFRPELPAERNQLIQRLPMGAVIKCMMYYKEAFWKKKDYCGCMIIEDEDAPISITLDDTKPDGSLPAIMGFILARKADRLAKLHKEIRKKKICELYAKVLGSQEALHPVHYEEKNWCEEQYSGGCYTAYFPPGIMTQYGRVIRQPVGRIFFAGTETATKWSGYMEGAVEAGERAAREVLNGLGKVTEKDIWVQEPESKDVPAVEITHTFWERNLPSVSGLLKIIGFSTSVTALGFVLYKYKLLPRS
Kind of assay: MAO-A standard in-vitro assay, human liver enzyme expressed in yeast. The format is biochemical. The method, then:
The activity of the compounds of the invention against MAO-A was tested using a standard in-vitro assay based on human liver enzyme expressed in yeast as described in Biochem. Biophys. Res. Commun. 1991, 181, 1084-1088. Ki values were determined using serial two-fold dilutions from […] to 0.04 μM.

[3] abbreviates: first line (strain not given), read-out: MIC.

As for `Cc1cn(C[C@H]2CN(c3ccc(C4=CC[S+]([O-])CC4)c(F)c3)C(=O)O2)nn1` (mixture of isomers) [Example 1, (5R)-3-[4-(1(R,S)-Oxo-3,6-dihydro-2H-thiopyran-4-yl)-3-fluorophenyl]-5-[(4-methyl)-1,2,3-triazol-1-ylmethyl]oxazolidin-2-one], the MIC in assay [1] was determined as 2 µg/mL; in assay [2] it was 4 µg/mL; in the assay on Streptococcus pneumoniae (setting [3]) it was 0.5 µg/mL; in the assay with Streptococcus pneumoniae (second line (strain not given)) it was 0.5 µg/mL; in the assay on Streptococcus pyogenes, 1 µg/mL; with Haemophilus influenzae it was 2 µg/mL. In the assay with Moraxella catarrhalis, this compound displayed an MIC of 2 µg/mL. Besides, on MAO-A, affinity was put at a Ki of 16 µM.

In the case of `O=C1O[C@@H](Cn2ccnn2)CN1c1ccc(C2=CC[S+]([O-])CC2)c(F)c1` (some centres unmarked) [Reference Example 1], the MIC in assay [1] was found to be 2 µg/mL (≈ 5.31 µM); in assay [2], 2 µg/mL (≈ 5.31 µM); in the assay with Streptococcus pneumoniae (setting [3]), 1 µg/mL (≈ 2.66 µM); in the assay on Streptococcus pneumoniae (second line (strain not given)), 1 µg/mL (≈ 2.66 µM); with Streptococcus pyogenes, 1 µg/mL (≈ 2.66 µM); with Haemophilus influenzae it was 4 µg/mL (≈ 10.6 µM). The same compound gave an MIC in the assay on Moraxella catarrhalis of 2 µg/mL (≈ 5.31 µM). Also, the Ki (usually the dissociation constant of the complex between target and ligand, obtained from inhibition or displacement) at MAO-A amounted to 3.6 µM.

On MAO-A, `CC(=O)NC[C@H]1CN(c2ccc(C3=CC[S+]([O-])CC3)c(F)c2)C(=O)O1` (some centres unmarked) [Reference Example 2] gave a Ki of 0.5 µM.
